# Key:
# [1] = target: DNA gyrase (374 kDa Gyr A2B2 subunit from Staphylococcus aureus) (Staphylococcus aureus, UniProt P0A0K8); experiment: Gyrase ATPase Assay; assay type: biochemical; details: 10 μM concentration, ATPase assay at 30° C., 0.9 mM ATP, average of duplicate values; for inhibition at 10 µM: read-out: Gyrase Inhibitory Activity (percent inhibition)
# Method: The ATP hydrolysis activity of DNA gyrase was measure by coupling the production of ADP through pyruvate kinase/lactate dehydrogenase to the oxidation of NADH. This method has been described previously (Tamura and Gellert, 1990, J. Biol. Chem., 265, 21342).
# ATPase assays are carried out at 30° C. in buffered solutions containing 100 mM TRIS pH 7.6, 1.5 mM MgCl2, 50 mM KCl. The coupling system contains (final concentrations) 2.5 mM phosphoenol pyruvate, 200 μM nicotinamide adenine dinucleotide (NADH), 1 mM DTT, […], and 10 ug/ml lactate dehydrogenase. 40 nanomolar enzyme (374 kDa Gyr A2B2 subunit from Staphylococcus aureus) and a DMSO solution of the inhibitor to a final concentration of 4% are added and the reaction mixture is allowed to incubate for 10 minutes at 30° C. The reaction is then started by the addition of ATP to a final concentration of 0.9 mM and the rate of NADH disappearance at 340 nanometers is measured over the course of 10 minutes. The percent inhibition values are determined from rate versus concentration profiles and are reported as the average of duplicate values.
# The compound numbers correspond to the compound numbers in Table 1. Compounds having an activity designated as “A” provided a percent inhibition value below 50 percent; compounds having an activity designated as “B” provided a percent inhibition value between 50 and 75 percent; and compounds having an activity designated as “C” provided a percent inhibition value greater than 75 percent.
# test bacteria = experiment: Susceptibility Testing in Liquid Media (MIC assay); assay type: cell-based; details: broth dilution, MHB, 35° C. overnight (16 to 20 hr), organism not given; for MIC: read-out: MIC (minimal inhibitory concentration) activity level
# Method: Susceptibility Testing in Liquid Media
# Compounds of this invention were also tested for antimicrobial activity by susceptibility testing in liquid media. Such assays were performed within the guidelines of the latest NCCLS document governing such practices: “M7-A5 Methods for dilution Antimicrobial Susceptibility Tests for Bacteria that Grow Aerobically; Approved Standard—Fifth Edition (2000)”. Other publications such as “Antibiotics in Laboratory Medicine” (Edited by V. Lorian, Publishers Williams and Wilkins, 1996) provide essential practical techniques in laboratory antibiotic testing. Essentially, several discrete bacterial colonies (3 to 7) from a freshly streaked plate were transferred to an appropriate rich broth medium such as MHB, supplemented where appropriate for the more fastidious organisms. This was grown overnight to high density followed by a 1 or 2-thousand-fold dilution to give an inoculation density of between 5×10^5 and 5×10^6 CFU per mL. Alternatively, the freshly picked colonies can be incubated at 37° C. for about 4 to 8 hrs until the culture equals or exceeds a turbidity of a 0.5 McFarland standard (approximately 1.5×10^8 cells per mL) and diluted to give the same CFU per mL as above. In a more convenient method, the inoculum was prepared using a commercially available mechanical device (the BBL PROMPT System) that involves touching five colonies directly with a wand, containing crosshatch grooves at its bottom, followed by suspension of the bacteria in an appropriate volume of saline. Dilution to the appropriate inoculum cell density was made from this cell suspension. The broth used for testing consists of MHB supplemented with 50 mg per L of Ca^2+ and 25 mg per L of Mg^2+. Standard dilution panels of control antibiotics were made and stored as in the NCCLS standard M7-A5, the dilution range typically being in the 128 μg per mL to 0.015 μg per mL (by 2-fold serial dilution). The test compounds were dissolved and diluted fresh for experimentation on the same day; the same or similar ranges of concentration as above being used. The test compounds and controls were dispensed into a multiwell plate and test bacteria added such that the final inoculation was approximately 5×10^4 CFU per well and the final volume was 100 μL. The plates were incubated at 35° C. overnight (16 to 20 hr) and checked by eye for turbidity or quantitated with a multiwell plate reader. […] Such determinations were also compared to the appropriate tables contained in the above two publications to ensure that the range of antibacterial activity is within the acceptable range for this standardized assay.
# The compound numbers correspond to the compound numbers in Table 1.
# DNA gyrase (374 kDa Gyr A2B2 subunit from Staphylococcus aureus), sequence (P0A0K8 whole entry): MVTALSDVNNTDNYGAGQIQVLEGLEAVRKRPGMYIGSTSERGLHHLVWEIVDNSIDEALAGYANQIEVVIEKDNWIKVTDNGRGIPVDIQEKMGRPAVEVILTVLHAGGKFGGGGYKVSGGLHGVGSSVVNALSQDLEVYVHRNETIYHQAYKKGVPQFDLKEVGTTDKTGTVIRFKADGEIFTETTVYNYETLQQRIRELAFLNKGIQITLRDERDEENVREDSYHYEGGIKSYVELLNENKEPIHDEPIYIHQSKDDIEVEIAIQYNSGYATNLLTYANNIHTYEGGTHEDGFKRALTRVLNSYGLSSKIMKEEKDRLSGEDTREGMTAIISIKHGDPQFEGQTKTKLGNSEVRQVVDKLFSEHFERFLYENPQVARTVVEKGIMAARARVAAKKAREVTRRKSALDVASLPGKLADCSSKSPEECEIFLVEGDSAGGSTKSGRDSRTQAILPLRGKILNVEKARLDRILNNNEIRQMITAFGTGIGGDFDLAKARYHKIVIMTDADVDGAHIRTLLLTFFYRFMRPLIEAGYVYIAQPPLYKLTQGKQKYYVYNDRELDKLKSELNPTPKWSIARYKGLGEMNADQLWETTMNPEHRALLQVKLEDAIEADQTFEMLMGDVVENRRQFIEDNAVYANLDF
# DNA gyrase (374 kDa Gyr A2B2 subunit from Staphylococcus aureus), sequence (P20831 whole entry, further chain): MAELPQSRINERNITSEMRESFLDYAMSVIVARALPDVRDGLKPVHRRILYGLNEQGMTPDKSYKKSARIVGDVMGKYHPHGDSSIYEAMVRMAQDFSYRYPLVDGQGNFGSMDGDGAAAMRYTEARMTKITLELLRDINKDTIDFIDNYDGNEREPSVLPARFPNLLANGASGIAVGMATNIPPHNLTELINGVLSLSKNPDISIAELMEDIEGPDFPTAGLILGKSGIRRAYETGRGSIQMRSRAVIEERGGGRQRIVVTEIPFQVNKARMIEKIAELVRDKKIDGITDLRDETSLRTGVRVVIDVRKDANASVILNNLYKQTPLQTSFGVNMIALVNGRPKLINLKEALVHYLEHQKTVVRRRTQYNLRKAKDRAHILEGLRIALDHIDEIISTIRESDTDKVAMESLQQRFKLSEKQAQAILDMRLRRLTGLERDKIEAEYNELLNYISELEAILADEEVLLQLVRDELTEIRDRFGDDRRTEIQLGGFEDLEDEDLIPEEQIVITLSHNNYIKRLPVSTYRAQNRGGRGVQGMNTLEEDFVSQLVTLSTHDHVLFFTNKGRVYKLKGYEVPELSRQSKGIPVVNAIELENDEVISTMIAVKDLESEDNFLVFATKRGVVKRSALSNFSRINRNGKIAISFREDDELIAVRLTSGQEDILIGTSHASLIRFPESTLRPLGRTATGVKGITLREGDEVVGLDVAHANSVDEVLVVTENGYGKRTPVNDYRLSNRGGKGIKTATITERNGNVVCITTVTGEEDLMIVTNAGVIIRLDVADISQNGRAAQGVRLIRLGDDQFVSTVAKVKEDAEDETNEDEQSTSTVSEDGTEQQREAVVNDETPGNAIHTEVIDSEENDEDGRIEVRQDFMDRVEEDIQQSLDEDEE
SMILES,inhibition at 10 µM [1] [%],MIC (test bacteria) [µg/mL],Gyrase Inhibitory Activity (percent inhibition) [1],MIC (minimal inhibitory concentration) activity level (test bacteria)
CCNC(=O)Nc1nc2cc(-c3cccnc3)c(OC)cc2[nH]1 [Ia-42],> 75,10 to 40,–,–
CCNC(=O)Nc1nc2cc(-c3cccnc3)cc(C)c2[nH]1 [Ia-58],> 75,< 10,–,–
CCNC(=S)Nc1nc2cc(-c3ccccc3)ccc2[nH]1 [Ia-90],–,< 10,C (provided a percent inhibition value greater than 75 percent),–
CCNC(=O)Nc1nc2cc(-c3cnc(SC)nc3)ccc2[nH]1 [Ia-92],> 75,< 10,–,–
CCNC(=O)Nc1nc2cc(-c3cnc(NCc4cccnc4)nc3)ccc2[nH]1 [Ia-98],> 75,10 to 40,–,–
CCNC(=O)Nc1nc2cc(-c3cnc(NCCCOC)nc3)ccc2[nH]1 [Ia-102],> 75,–,–,–
CCNC(=O)Nc1nc2cc(-c3cccnc3)cc(F)c2[nH]1 [Ia-103],> 75,–,–,–
CCNC(=O)Nc1nc2cc(-c3cnc(NCCC4CCCN4C)nc3)ccc2[nH]1 (centres unmarked) [Ia-106],> 75,–,–,–
CCNC(=O)Nc1nc2cc(-c3cccnc3)cc(OC)c2[nH]1 [Ia-108],> 75,–,–,–
CCNC(=O)Nc1nc2cc(-c3cnc(N4CC(C)CC(C)C4)nc3)ccc2[nH]1 (centres unmarked) [Ia-109],> 75,–,–,–
CCNC(=O)Nc1nc2cc(-c3cnc(OC)nc3)c(OC)cc2[nH]1 [Ia-112],> 75,< 10,–,–
CCNC(=O)Nc1nc2cc(-c3cnc(N4CCN(C(C)=O)CC4)nc3)ccc2[nH]1 [Ia-113],> 75,–,–,–
CCOC(=O)Nc1nc2cc(-c3cncc(N)c3)ccc2[nH]1 [Ia-115],< 50,–,–,–
CSc1ncc(-c2ccc3[nH]c(NC(=O)NC(C)C)nc3c2)cn1 [Ia-116],50 to 75,> 40,–,–
CSc1ncc(-c2ccc3[nH]c(NC(=O)NC4CCCC4)nc3c2)cn1 [Ia-117],< 50,> 40,–,–
CCNC(=O)Nc1nc2cc(-c3cccnc3)ccc2[nH]1 [Ia-118],> 75,< 10,–,–
CCCNC(=O)Nc1nc2cc(-c3cccnc3)ccc2[nH]1 [Ia-119],> 75,> 40,–,–
CC(C)NC(=O)Nc1nc2cc(-c3cccnc3)ccc2[nH]1 [Ia-120],50 to 75,> 40,–,–
O=C(Nc1nc2cc(-c3cccnc3)ccc2[nH]1)NC1CCCC1 [Ia-121],< 50,> 40,–,–
CCOC(=O)Nc1nc2cc(-c3cncc(NC(C)=O)c3)ccc2[nH]1 [Ia-122],> 75,> 40,–,–

SMILES,inhibition at 10 µM [1] [%],MIC (test bacteria) [µg/mL],Gyrase Inhibitory Activity (percent inhibition) [1],MIC (minimal inhibitory concentration) activity level (test bacteria)
CCNC(=O)Nc1nc2cc(-c3cnc(N4CCN(S(C)(=O)=O)CC4)nc3)ccc2[nH]1 [Ia-124],50 to 75,–,–,–
CCNC(=O)Nc1nc2cc(-c3cnc(N4CCC(O)CC4)nc3)ccc2[nH]1 [Ia-125],> 75,–,–,–
CCNC(=O)Nc1nc2cc(-c3cnc(N)nc3)c(OC)cc2[nH]1 [Ia-126],> 75,–,–,–
CCCN(CC1CC1)c1ncc(-c2ccc3[nH]c(NC(=O)NCC)nc3c2)cn1 [Ia-127],> 75,–,–,–
CCNC(=O)Nc1nc2cc(-c3cnc(NCc4ccc5c(c4)OCO5)nc3)ccc2[nH]1 [Ia-128],> 75,–,–,–
CCNC(=O)Nc1nc2cc(-c3cnc(N4CCC(O)C4)nc3)ccc2[nH]1 (centres unmarked) [Ia-129],> 75,–,–,–
CCNC(=O)Nc1nc2cc(-c3cnc(N4CCCC4COC)nc3)ccc2[nH]1 (centres unmarked) [Ia-130],> 75,–,–,–
CCNC(=O)Nc1nc2cc(-c3cnc(N)nc3)c(F)cc2[nH]1 [Ia-131],> 75,–,–,–
CCNC(=O)Nc1nc2cc(-c3ccc(OC)nc3)ccc2[nH]1 [Ia-132],> 75,–,–,–
CCNC(=O)Nc1nc2cc(-c3cccnc3)c(C)cc2[nH]1 [Ia-133],> 75,< 10,–,–
CCNC(=O)Nc1nc2cc(-c3cccnc3)cc(Cl)c2[nH]1 [Ia-134],> 75,–,–,–
CCNC(=O)Nc1nc2cc(-c3ccc(CNC(=O)OC(C)(C)C)cc3)ccc2[nH]1 [Ia-135],> 75,–,–,–
CCNC(=O)Nc1nc2cc(-c3ccc(F)nc3)ccc2[nH]1 [Ia-136],> 75,–,–,–
CCNC(=O)Nc1nc2cc(-c3ccc(CN)cc3)ccc2[nH]1 [Ia-137],> 75,> 40,–,–
CCNC(=O)Nc1nc2cc(-c3ccc(CNS(C)(=O)=O)cc3)ccc2[nH]1 [Ia-138],> 75,> 40,–,–
CCNC(=O)Nc1nc2cc(-c3ccc(CNC(C)=O)cc3)ccc2[nH]1 [Ia-139],> 75,> 40,–,–
CCNC(=O)Nc1nc2cc(-c3cnc(OC(C)COC)nc3)c(OC)cc2[nH]1 (centres unmarked) [Ia-140],> 75,< 10,–,–
CCNC(=O)Nc1nc2cc(-c3cnc(NC(C)COC)nc3)cc(C)c2[nH]1 (centres unmarked) [Ia-141],> 75,< 10,–,–
CCNC(=O)Nc1nc2cc(-c3cccnc3)c(C)c(C)c2[nH]1 [Ia-142],> 75,< 10,–,–
CCNC(=O)Nc1nc2cc(-c3ccc(CN(C(=O)OC(C)(C)C)C(C)(C)C)nc3)ccc2[nH]1 [Ia-143],> 75,–,–,–

SMILES,inhibition at 10 µM [1] [%],MIC (test bacteria) [µg/mL],Gyrase Inhibitory Activity (percent inhibition) [1],MIC (minimal inhibitory concentration) activity level (test bacteria)
CCNC(=O)Nc1nc2cc(-c3ccc(CN)nc3)ccc2[nH]1 [Ia-144],> 75,10 to 40,–,–
CCNC(=O)Nc1nc2cc(-c3ccc(CNC(C)=O)nc3)ccc2[nH]1 [Ia-145],> 75,10 to 40,–,–
CCNC(=O)Nc1nc2cc(-c3cnc(NC(C)COC)nc3)c(OC)cc2[nH]1 (centres unmarked) [Ia-146],> 75,< 10,–,–
CCNC(=O)Nc1nc2cc(-c3cccnc3)c(OC)c(C)c2[nH]1 [Ia-147],50 to 75,> 40,–,–
CCNC(=O)Nc1nc2cc(-c3ccc(CNC(=O)OC(C)(C)C)nc3)ccc2[nH]1 [Ia-148],> 75,10 to 40,–,–
CCNC(=O)Nc1nc2cc(-c3cccnc3)c(OCCOC)c(C)c2[nH]1 [Ia-149],> 75,> 40,–,–
CCNC(=O)Nc1nc2cc(-c3nnc(C)o3)ccc2[nH]1 [Ia-150],50 to 75,> 40,–,–
CCNC(=O)Nc1nc2cc(-c3nnco3)ccc2[nH]1 [Ia-151],> 75,> 40,–,–
CCNC(=O)Nc1nc2cc(-c3cccc(F)c3F)ccc2[nH]1 [Ia-152],> 75,10 to 40,–,–
CCNC(=O)Nc1nc2cc(-c3cccnc3)c3c(c2[nH]1)OC(F)(F)O3 [Ia-153],50 to 75,> 40,–,–
CCNC(=O)Nc1nc2cc(-c3ccc(CNS(C)(=O)=O)nc3)ccc2[nH]1 [Ia-154],> 75,> 40,–,–
CCNC(=O)Nc1nc2cc(-c3cccc(F)c3)ccc2[nH]1 [Ia-155],< 50,–,–,–
CCNC(=O)Nc1nc2cc(-c3cccnc3)cc(O)c2[nH]1 [Ia-169],–,–,–,B (provided an MIC of between 10 and 40 μg/mL)
CCNC(=O)Nc1nc2cc(-n3cc(C(=O)N4CCOCC4)cn3)ccc2[nH]1 [Ia-172],> 75,–,–,–
CCNC(=O)Nc1nc2cc(N3CCOCC3)ccc2[nH]1 [Ia-176],< 50,–,–,–
CCNC(=O)Nc1nc2cc(-n3cc(C(=O)O)c4ncccc43)ccc2[nH]1 [Ia-196],–,10 to 40,–,–
CCNC(=O)Nc1nc2cc(-c3ccc(OCCOCC)nc3)ccc2[nH]1 [Ia-197],–,10 to 40,–,–
CCNC(=O)Nc1nc2nc(N3CCC(N)C3)ccc2[nH]1 (centres unmarked) [Ia-198],–,10 to 40,–,–
